How the values were obtained:
[1] = biological target: T1, Muscarinic acetylcholine receptor M2 (Homo sapiens, UniProt P08172); assay: Compound was evaluated for displacement of [3H]-QNB from human Muscarinic m2 receptor in CHO cells.; format: cell-based
T1 sequence (P08172 whole entry): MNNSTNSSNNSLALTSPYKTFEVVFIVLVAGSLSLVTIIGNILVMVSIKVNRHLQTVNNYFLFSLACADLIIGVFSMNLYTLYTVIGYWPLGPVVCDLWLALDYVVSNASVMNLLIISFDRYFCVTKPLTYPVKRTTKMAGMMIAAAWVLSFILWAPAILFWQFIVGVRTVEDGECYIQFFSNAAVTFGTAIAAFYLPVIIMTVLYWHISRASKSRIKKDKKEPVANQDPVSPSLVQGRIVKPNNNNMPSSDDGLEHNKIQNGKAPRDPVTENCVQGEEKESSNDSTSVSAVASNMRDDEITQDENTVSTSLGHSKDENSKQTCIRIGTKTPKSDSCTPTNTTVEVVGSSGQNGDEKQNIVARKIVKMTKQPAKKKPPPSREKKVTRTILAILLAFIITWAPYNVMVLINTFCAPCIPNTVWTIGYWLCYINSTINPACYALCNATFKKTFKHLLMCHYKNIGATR

[2] = biological target: T2, Muscarinic acetylcholine receptor M1 (Homo sapiens, UniProt P11229); assay: Compound was evaluated for displacement of [3H]QNB from human Muscarinic m1 receptor in CHO cells.; format: cell-based
T2 sequence (P11229 whole entry): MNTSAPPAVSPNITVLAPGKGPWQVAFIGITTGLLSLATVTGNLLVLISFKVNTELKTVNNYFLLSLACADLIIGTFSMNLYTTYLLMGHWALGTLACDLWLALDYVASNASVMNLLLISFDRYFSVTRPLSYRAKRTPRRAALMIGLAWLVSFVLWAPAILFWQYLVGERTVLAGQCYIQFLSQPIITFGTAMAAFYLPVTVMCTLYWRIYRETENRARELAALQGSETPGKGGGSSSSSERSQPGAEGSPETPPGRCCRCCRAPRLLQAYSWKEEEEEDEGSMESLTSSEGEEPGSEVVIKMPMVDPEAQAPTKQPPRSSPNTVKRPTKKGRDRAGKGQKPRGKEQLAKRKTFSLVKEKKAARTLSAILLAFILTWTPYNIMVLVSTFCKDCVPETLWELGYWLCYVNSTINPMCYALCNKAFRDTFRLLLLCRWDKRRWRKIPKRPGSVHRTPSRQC

Row | Ki [1] | Ki [2] | Compound
1 | 52 nM | 179 nM | CCN(CC)CC1CCCCN1CC(=O)N1c2ccccc2C(=O)Nc2cccnc21 (stereo unspecified) [OTENZEPAD]
2 | 71.2 nM | 82.4 nM | CC1CCN(CC(=O)N2c3ccccc3C(=O)Nc3cccnc32)CC1
3 | 5.28 nM | 12.4 nM | CCCN(CCC)CC1CCCCN1CCNC(=O)N1c2ccccc2C(=O)Nc2cccnc21 (stereo unspecified)
